Source: ChEMBL document CHEMBL1121876, “gamma-Aminobutyric acid agonists, antagonists, and uptake inhibitors. Design and therapeutic aspects” (J Med Chem, 1981)

How the values were obtained:
[1] = target: GABA-A receptor; anion channel; test: Activation of binding of [3H]diazepam to Gamma-aminobutyric acid receptor; assay type: protein-complex assay
[2] = target: GABA-A receptor; anion channel; test: In vitro inhibition of [3H]GABA binding to Gamma-aminobutyric acid receptor of human astrocytes
[3] = target: GABA-A receptor; anion channel; test: In vitro inhibition of [3H]P4S binding to Gamma-aminobutyric acid receptor of human astrocytes
[4] = target: GABA-A receptor; anion channel; test: In vitro inhibition of [3H]-THIP binding to Gamma-aminobutyric acid receptor of human astrocytes
[5] = target: GABA-A receptor; anion channel; test: In vitro inhibition of [3H]isoguvacine binding to Gamma-aminobutyric acid receptor of human astrocytes
[6] = target: GABA-A receptor; anion channel; test: In vitro inhibition of [3H]muscimol binding to Gamma-aminobutyric acid receptor of human astrocytes
[7] = Inhibition of glial GABA uptake; assay type: functional
[8] = Inhibition of neuronal GABA uptake; assay type: functional

| EC50 [1] | IC50 [2] | IC50 [3] | IC50 [4] | IC50 [5] | IC50 [6] | IC50 [7] | IC50 [8] | SMILES |
| --- | --- | --- | --- | --- | --- | --- | --- | --- |
| 410 µM | 5 µM | 21 µM | 2.5 µM | 6.1 µM | 4.3 µM | 120 µM | 200 µM | C[C@@H](N)CCC(=O)O |
| 550 µM | 4.7 µM | 24 µM | 2.9 µM | 5.2 µM | 2.5 µM | 1000 µM | 750 µM | C[C@H](N)CCC(=O)O |
| 390 µM | 4.1 µM | 21 µM | 2.6 µM | 2.5 µM | 3.5 µM | > 5000 µM | > 5000 µM | C[C@H](N)/C=C/C(=O)O |
| > 2000 µM | 148 µM | 670 µM | 88 µM | 84 µM | 145 µM | 500 µM | 160 µM | C[C@@H](N)/C=C/C(=O)O |

| SMILES | EC50 [1] | IC50 [2] | IC50 [3] | IC50 [4] | IC50 [5] | IC50 [6] | IC50 [7] | IC50 [8] |
| --- | --- | --- | --- | --- | --- | --- | --- | --- |
| C[C@@H](N)c1cc(O)no1 | 2300 µM | 19 µM | 83 µM | 9.5 µM | 8.2 µM | 8.9 µM | > 1000 µM | > 1000 µM |
| C[C@H](N)c1cc(O)no1 | 230 µM | 0.64 µM | 5.8 µM | 0.74 µM | 1.6 µM | 0.51 µM | > 1000 µM | > 1000 µM |
